Assay results from patent publication US20230330233A1, “COMPOSITIONS AND METHODS FOR DELIVERING PHARMACEUTICAL AGENTS” (priority 2018, published 2023).

Experiments:
[1] = Dissolution in PBS media containing methyl cellulose polymer, Example 2; type: physicochemical; conditions: PBS media with methyl cellulose polymer, Average (Standard Error of the Mean)
From the text: (§1) This Example described further characterization of a variety of drugs in MOF-5. Methyl cellulose polymer was included in both SG and PBS) dissolution media to inhibit precipitation of drug molecules at high supersaturation and to serve as a proxy for what would be an extensive formulation process of this supersaturating drug delivery system. […] Immediate release of CUR molecules from CUR@MOF-5 via MOF hydrolytic decomposition leads to rapid dissolution which generates high supersaturation in the first 60 min (FIGS. 5a and b). […] This immediate drug release from drug@MOF-5 composite is in contrast with controlled drug release from an amorphous drug@MOF composite with a water stable framework ([…] al., Chem. Commun. 2015, 51, 13878).

[2] = Dissolution and supersaturation in phosphate buffer saline (PBS) media, UV-vis, Example 1; type: physicochemical; conditions: for AUC0-4 / Cmax: 37° C., Average (Standard Error of the Mean)
Method: (§2) To determine the dissolution and supersaturation behavior in SG and PBS media of all CUR, SUL, CUR@MOF-5 and SUL@MOF-5 composites and their physical mixture samples, UV-vis spectroscopy (which is applied to monitor the dissolution process) was used. Concentration of CUR and SUL at 37° C. was determined. FIGS. 4a-d illustrate the solubility of pure CUR, CUR@MOF-5 composite and physical mixture and pure SUL, SUL@MOF-5 composite and physical mixture in SG and PBS media respectively. […] Because the immediate release of CUR molecules (from CUR@mof-5 composite) led to rapid dissolution, which generates high supersaturation in the first 60 min. […] Subsequently, a crystallization process occurs accompanied by a decrease in CUR concentration in both media.

[3] = Dissolution in SG media containing methyl cellulose polymer, Example 2; type: physicochemical; conditions: SG media with methyl cellulose polymer, Average (Standard Error of the Mean)
From the text: as §1

[4] = Dissolution and supersaturation in simulated gastric (SG) media, UV-vis, Example 1; type: physicochemical; conditions: 37° C., Average (Standard Error of the Mean)
Method: as §2

[5] = tested on: mouse model; conditions: oral, Ullmann's Encyclopedia; cited from earlier work

AUC0-4 [1]	Cmax [1]	AUC0-4 [2]	Cmax [2]	AUC0-4 [3]	Cmax [3]	AUC0-4 [4]	Cmax [4]	dissolution behavior in PBS media [2]	Structure (SMILES)	lethal dose, LD50 [5]
5.89(9) mg*h/mL	26.89(8) μg/mL	–	–	–	–	–	–	–	Nc1nc(N)c2nc(-c3ccccc3)c(N)nc2n1 [TAT, triamterene]	–
0.15(2) mg*h/mL	0.95(4) μg/mL	0.22(3) mg*h/mL	1.12(7) μg/mL	0.39(6) mg*h/mL	2.12(21) μg/mL	0.41(6) mg*h/mL	1.99(4) μg/mL	–	COc1cc(/C=C/C(=O)CC(=O)/C=C/c2ccc(O)c(OC)c2)ccc1O [CUR, curcumin]	–
–	–	–	–	–	–	–	–	–	O=C(O)c1ccc(C(=O)O)cc1 [terephthalic acid]	over 1 g/kg
–	–	15.82(21) mg*h/mL	68.65(91) μg/mL	1.38(2) mg*h/mL	6.84(7) μg/mL	1.32(2) mg*h/mL	6.01(6) μg/mL	fully dissolved	CC1=C(CC(=O)O)c2cc(F)ccc2/C1=C\c1ccc([S+](C)[O-])cc1 (stereo not drawn) [SUL, sulindac]	–
